Reference: patent US10604474B2, “Crystalline form of gamma-aminobutyric acid and preparation method thereof” (NANTONG LICHENG BIOLOGICAL ENGINEERING CO., LTD, priority 2016, dated 2020)

Experiments:
Assay type in all cases: physicochemical
[1] = Bulk density
[2] = Scanning Electron Microscopy (SEM) characterization of crystals
[3] = Angle of repose (flowability) measured with a 1050/70 type goniometer; conditions: slightly ground, smeared on horizontal quartz plate; smaller than 40° meets flowability requirements
Experimental: It is generally believed that the smaller the angle of repose, the better the flowability. When the angle of repose is smaller than 40°, flowability requirements in the production process can be met.

[4] = Moisture absorption and agglomeration

Bulk density [1] [g/mL] | Particle size distribution [2] | Angle of repose (flowability) [3] [°] | Agglomeration [4] | Structure (SMILES) | Susceptibility to absorbing moisture and agglomeration [4]
0.75 | uniform | 36 | – | NCCCC(=O)O [Embodiment 4, γ-aminobutyric acid] | not susceptible to absorbing moisture and agglomeration
0.85 | uniform | 34 | – | NCCCC(=O)O [Embodiment 3, γ-aminobutyric acid] | not susceptible to absorbing moisture and agglomeration
0.80 | – | 35 | No agglomeration | NCCCC(=O)O [Present invention, γ-aminobutyric acid] | –
0.7 | uniform | 37 | – | NCCCC(=O)O [Embodiment 2, γ-aminobutyric acid] | not susceptible to absorbing moisture and agglomeration
0.7 | uniform | 37 | – | NCCCC(=O)O [Embodiment 5, γ-aminobutyric acid] | not susceptible to absorbing moisture and agglomeration
0.8 | uniform | 35 | – | NCCCC(=O)O [Embodiment 6, γ-aminobutyric acid] | not susceptible to absorbing moisture and agglomeration
0.8 | uniform | 35 | – | NCCCC(=O)O [Embodiment 1, γ-aminobutyric acid] | not susceptible to absorbing moisture and agglomeration
0.65 | – | 50 | Serious agglomeration | NCCCC(=O)O [CN101928736A, CN103509831A, CN104531795A, CN102242161A] [γ-aminobutyric acid, reference compound] | –
